Measurements published in patent publication EP0371733A2, “Dopamine-beta-hydroxylase inhibitors” (SMITHKLINE BEECHAM CORPORATION, priority 1988, dated 1990).

Columns and labels:
DBH [1] = target: T1, DBH (Homo sapiens, UniProt P09172); assay: in vitro DBH inhibition, conversion of tyramine to octopamine in the presence of DBH; assay type: biochemical; details: concentration at which DBH activity was halved; octopamine assayed by absorbence at 330 nm; read-out: DBH IC₅₀
T1 sequence (P09172 1-617): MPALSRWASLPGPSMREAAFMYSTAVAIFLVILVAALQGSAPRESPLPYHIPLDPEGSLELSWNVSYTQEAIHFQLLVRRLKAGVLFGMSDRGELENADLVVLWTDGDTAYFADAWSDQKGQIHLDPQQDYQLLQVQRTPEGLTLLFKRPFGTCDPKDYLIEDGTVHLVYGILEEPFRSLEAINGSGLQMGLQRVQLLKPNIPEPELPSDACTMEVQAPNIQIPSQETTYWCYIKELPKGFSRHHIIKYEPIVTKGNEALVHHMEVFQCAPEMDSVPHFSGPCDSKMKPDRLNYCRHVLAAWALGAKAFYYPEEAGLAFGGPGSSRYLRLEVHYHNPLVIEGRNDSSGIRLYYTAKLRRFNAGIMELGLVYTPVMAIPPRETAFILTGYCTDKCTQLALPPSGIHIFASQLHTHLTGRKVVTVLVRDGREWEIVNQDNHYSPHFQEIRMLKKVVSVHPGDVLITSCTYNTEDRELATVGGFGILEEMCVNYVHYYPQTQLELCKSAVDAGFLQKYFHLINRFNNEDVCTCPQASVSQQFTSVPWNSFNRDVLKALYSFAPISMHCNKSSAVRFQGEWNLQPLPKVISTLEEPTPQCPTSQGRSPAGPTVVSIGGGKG
Procedure: Listed in Table I are compounds of the invention that were tested for in vitro DBH inhibition by a standard procedure for assaying conversion of tyramine to octopamine in the presence of DBH. J.J. Pisano, et al., Biochim. Biophys. Acta, 43, 566-568 (1960). Octopamine was assayed following sodium periodate oxidation to p-hydroxybenzaldehyde by measuring spectrophotometric absorbence at 330 nm. In Table I, inhibition is given in molar concentration of compound at which DBH activity was halved (IC₅₀). Fusaric acid, by this test has an IC₅₀ of 8 x 10⁻⁷M.

[2] = test system: spontaneously hypertensive rats; assay: mean arterial blood pressure in spontaneously hypertensive rats; assay type: in vivo; details: 50 mg/kg intraperitoneally, vs vehicle-treated controls
Procedure: Further, spontaneously hypertensive rats were treated with 3-(3-fluorophenylmethyl)-2-thiazolidinethione at a dose of 50 mg/kg intraperitoneally, and mean arterial blood pressure was monitored for 250 minutes using indwelling cannulae in the tail arteries. […] The maximal blood pressure reduction was approximately 20 mmHg.

[3] = in vitro screen; Weiffen et al., 1967; cited from earlier work
[4] = Teresawa et al., 1971; cited from earlier work
DBH [5] = target: T1, DBH; details: Runti et al., 1980; cited from earlier work

Molecule: Fc1cc(F)cc(CN2CCSC2=S)c1 [3-(3,5-Difluorophenylmethyl)-2-thiazolidinethione]
- IC50 (DBH [1]): 13 ± 1 µM

Molecule: Fc1cccc(CN2CCSC2=S)c1 [3-(3-Fluorophenylmethyl)-2-thiazolidinethione]
- maximal blood pressure reduction ([2]; mean arterial blood pressure monitored for 250 minutes): approximately 20 mmHg
- time to significant blood pressure reductions following treatment [2]: ≤ 30 min
- IC50 (DBH [1]): 30 ± 3 µM

Molecule: S=C1SCCN1Cc1ccccc1 [3-Phenylmethyl-2-thiazolidinethione]
- tuberculostatic activity [3]: poor activity
- IC50 (DBH [1]): 72 ± 13 µM

Molecule: S=C1SCCN1CCc1ccccc1 [3-phenethylthiazolidinethione, reference compound]
- tuberculostatic activity [3]: poor activity

Molecule: CCCCc1ccc(C(=O)O)nc1 [Fusaric acid]
- toxic effects [4]: hepatotoxic

Molecule: phenylpicolinic acid
- inhibitory activity relative to fusaric acid (DBH [5]): twice the inhibitory activity of fusaric acid
